The values below come from ChEMBL document CHEMBL1128783, “N-Methyl and N-cyclopropylmethyl-14,14-[dithiobis[(2-oxo-2,1-ethanediyl)imino]]bis(7,8-dihydro-5-methyl-morphinone) MET-TAMO and N-CPM-MET-TAMO: Synthesis and opioid binding properties” (Bioorg Med Chem Lett, 1995).

Test [1] deals with T1, Mu-type opioid receptor (Bos taurus, UniProt P79350). In words: Inhibitory activity against Opioid receptor mu 1 binding to bovine striatal membrane. Further details: species or system Striatum.
Test [2] in a line: Inhibitory activity against Opioid receptor kappa1 binding to bovine striatal membrane.
A short description of test [3]: Inhibitory activity against Opioid receptor delta 1 binding to bovine striatal membrane.
In test [4] the target is Mu-type opioid receptor (Bos taurus) (UniProt P79350). In words: Effect at dose 40 nM on wash-resistant inhibition of [3H]DAMGO binding to TPCK-treated membranes. Further details: scale not given: the % may be the effect or the level left.
Chain of Mu-type opioid receptor (Bos taurus) (P79350 whole entry): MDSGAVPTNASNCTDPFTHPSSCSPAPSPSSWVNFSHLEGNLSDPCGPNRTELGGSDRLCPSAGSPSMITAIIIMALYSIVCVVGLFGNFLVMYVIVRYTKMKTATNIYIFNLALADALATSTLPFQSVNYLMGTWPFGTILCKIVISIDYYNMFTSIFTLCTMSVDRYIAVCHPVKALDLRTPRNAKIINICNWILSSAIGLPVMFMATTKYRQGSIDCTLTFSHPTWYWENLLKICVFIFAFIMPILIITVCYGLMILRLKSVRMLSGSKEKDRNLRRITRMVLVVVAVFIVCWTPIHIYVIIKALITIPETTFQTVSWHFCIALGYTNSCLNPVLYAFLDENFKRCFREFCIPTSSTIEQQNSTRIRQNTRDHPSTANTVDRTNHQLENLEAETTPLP
In test [5] the target is T1, Mu-type opioid receptor. In words: Binding affinity towards Opioid receptor mu 1 using [3H]DAMGO expressed as Kd.

T1 sequence (P79350 whole entry): as above

As for `O=C(CSSCC(=O)N[C@@]12CCC(=O)[C@@H]3Oc4c(O)ccc5c4[C@@]31CCN(CC1CC1)[C@@H]2C5)N[C@@]12CCC(=O)[C@@H]3Oc4c(O)ccc5c4[C@@]31CCN(CC1CC1)[C@@H]2C5`, the IC50 on Mu-type opioid receptor [1] was determined as 3.9 nM; in test [2] it was 10 nM; in test [3], 24 nM.

On Mu-type opioid receptor [1], `CN1CC[C@]23c4c5ccc(O)c4O[C@@]2(C)C(=O)CC[C@@]3(NC(=O)CSSCC(=O)N[C@@]23CCC(=O)[C@]4(C)Oc6c(O)ccc7c6[C@@]42CCN(C)C3C7)C1C5` returned an IC50 of 2.9 nM.

In test [4], `OC(CS)C(O)CS` (centres undefined) returned a Control of 107%.

For the compound `CN1CC[C@]23c4c5ccc(O)c4O[C@H]2C(=O)CC[C@@]3(NC(=O)CSSCC(=O)N[C@@]23CCC(=O)[C@@H]4Oc6c(O)ccc7c6[C@@]42CCN(C)[C@@H]3C7)[C@H]1C5`, the half-inhibitory concentration (IC50) in test [2] is 41 nM; in test [3] it was 11 nM.

Turning to `C[C@@]12Oc3c(O)ccc4c3[C@@]13CCN(CC1CC1)[C@H](C4)[C@]3(NC(=O)CSSCC(=O)N[C@@]13CCC(=O)[C@]4(C)Oc5c(O)ccc6c5[C@@]41CCN(CC1CC1)[C@@H]3C6)CCC2=O`, the IC50 on Mu-type opioid receptor [1] is 1.4 nM. On Mu-type opioid receptor [5], this compound gave a Kd of 0.4 nM.

In general, IC50 refers to the concentration needed to halve the response being measured. For orientation: Kd means a measure of binding affinity in units of concentration.
